# Laboratory results from patent US8410094B2, “Amide compounds, their pharmaceutical compositions, their preparation method and their uses” (Shanghai Institute of Materia Medica, Chinese Academy of …, priority 2008, dated 2013).
# Biological target: T1, CCR5 (Homo sapiens, UniProt P51681)
# T1 construct: expressed in transfected cells
# Assay: Inhibition of CCR5: [35S]GTPγS binding assays (filtration, SPA-WGA) and calcium influx assay, 10 nM RANTES, CHO-CCR5
# Assay type: biochemical
# Details: for IC50: inhibition of GTPγS binding induced by 10 nM RANTES, CHO-CCR5
# Experimental: CCR5 belongs to G-Protein-Coupled Receptor (GPCR) family. The developing technology of GPCR-based drugs have been well-developed, among them, the experimental techniques such as ligand-receptor binding assay, GTPγS binding assay and Ca^2+ flux assay have been widely used in drug-screening related to chemokine receptors. The inhibitory activities of the compounds according to the present invention against CCR5 are measured by three methods, i.e., [^35S]GTPγS filter binding assay, SPA-WGA-based [^35S]GTPγS binding assay and calcium influx assay. At the same time, the antiviral activities in cell of the compounds according to the present invention are evaluated by using two kinds HIV-1 subtypes: H4DA5 cell model and PBMC system virus replication model.
# A. [^35S]GTPγS Binding Assay
# After binding with an agonist, CCR5 experiences a conformation change such that CCR5 interacts with G protein so as to active the G protein. G protein is a tripolymer composed of α-subunit and βγ-subunit. Since the ability of α-subunit binding to GTP depends on the interaction of CCR5 with the agonist, the ability of an agonist for activating CCR5 can be reflected by determining the amount of GTP binding to α-subunit. In a GTPγS binding assay, a ^35S-labeled GTP analogue GTPγS, which can bind with an activated α-subunit without being hydrolyzed, is used to replace GTP in order for eliminating the defect that the amount of GTP binding to G protein can not exactly reflect the activation of CCR5 due to the hydrolysis of GTO by GTPase and for convenience of detection. So, α-subunit binds with GDP when CCR5 is not activated, and after the activation of CCR5, α-subunit binds with GTPγS such that GTPγS irreversible binds to α-subunit. Therefore, the amount of [^35S]-GTPγS binding to α-subunit could reflect the level of CCR5 activated by an agonist. The ability of the agonist for activating CCR5 will decrease when an antagonist is added.
# Such experiment has been referred to as GTPγS filtration assay in which [^35S]-GTPγS bound with the free G protein could be separated by membrane filtration.
# Alternatively, SPA (Scintillation Proximity Assay) technique can be used to detect the [^35S]-GTPγS bound to G protein, which is called SPA-WGA-based [35S]GTPγS binding assay. The principle of SPA technique is as follows. Sub-atomic particles released during the decay of radioactive atoms, for example β-ray (electron), can excite microspheres at a sufficiently close distance to emit light so as to be detected by a Scintillation Counter. In an aqueous solution, most of the energy of these rays is absorbed by the solvent, and the traveling distance of these rays is limited.
# The activation of G protein by CCR5 is determined by the following experiments.
# CHO (Chinese hamster ovary cell) permanent cell line expressing CCR5 (CHO-CCR5) (a cell line constructed by Shanghai Targetdrug Ltd.) was lysed with a lysis buffer (5 mM Tris-HCl, pH 7.5, 5 mM EDTA and 5 mM EGTA) and then centrifugated at 15,000×g for 10 min to obtain cell membrane. After the cell membrane was resuspended in a reaction buffer (5 mM Tris-HCl, pH 7.5, 5 mM MgCl2, 1 mM EGTA, 100 mM NaCl), the protein concentration was determined using Bioford Protein Assay Kit manufactured by Bio-Rad Laboratories Inc. Subsequently, GTPγS binding assay was performed in the reaction buffer, wherein the reaction system was 100 μL containing 10 μg membrane protein, 40 μM GDP and 0.5 nM [^35S]-GTPγS (1200 Ci/mmol). After the compound to be tested (the compound was first dissolved in DMSO and then diluted in gradient with the reaction buffer according to the specific situation, wherein the final concentration of DMSO was 1% (v/v) in the whole reaction system) was added and shaken to mix homogeneously, the reaction tube was incubated at 30° C. for 1 hour. After the reaction finished, the tube was placed on ice, and the reaction mixture was diluted with PBS to quench the reaction and filtered under reduced pressure with a GF/C filter membrane. […]
# T1 sequence (P51681 whole entry): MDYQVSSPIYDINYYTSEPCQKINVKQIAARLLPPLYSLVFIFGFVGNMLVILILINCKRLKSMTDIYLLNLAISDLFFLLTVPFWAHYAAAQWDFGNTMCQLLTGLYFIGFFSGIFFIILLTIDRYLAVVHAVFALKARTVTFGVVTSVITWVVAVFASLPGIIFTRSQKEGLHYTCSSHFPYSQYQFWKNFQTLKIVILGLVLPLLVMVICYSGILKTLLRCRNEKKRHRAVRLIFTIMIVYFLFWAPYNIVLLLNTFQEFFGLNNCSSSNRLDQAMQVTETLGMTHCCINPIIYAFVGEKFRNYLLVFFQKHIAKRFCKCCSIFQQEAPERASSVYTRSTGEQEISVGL
Compound,IC50 [nM],inhibition at 0.03 µM (read-out: inhibition against CCR5 @30 nM) [%],inhibition at 0.3 µM (read-out: inhibition against CCR5 @300 nM) [%]
1-acetyl-N-(3-chloro-4-methylphenyl)-N-(3-(3-exo-(2-(4-(pyrrolidine-1-sulfonyl)phenyl)acetamido)-8-azabicyclo[3.2.1]oct-8-yl)propyl)-4-piperidinylcarboxamide [Compound 7i],2.97,,
"CC(=O)N1CCC(C(=O)N(CCCN2C3CCC2CC(NC(=O)Cc2ccccc2)C3)c2ccc(C)c(Cl)c2)CC1 (stereo not drawn) [Compound 7a, 1-acetyl-N-(3-chloro-4-methylphenyl)-N-(3-(3-exo-(2-phenylacetamido)-8-azabicyclo[3.2.1]oct-8-yl)propyl)-4-piperidinylcarboxamide]",,26.2,64.6
"CC(=O)N1CCC(C(=O)N(CCCN2[C@@H]3CC[C@H]2C[C@H](NC(=O)Cc2ccc(C(F)(F)F)cc2)C3)c2ccc(C)c(Cl)c2)CC1 [Compound 7d, 1-acetyl-N-(3-chloro-4-methylphenyl)-N-(3-(3-exo-(2-(4-(trifluoromethyl)phenyl)acetamido)-8-azabicyclo[3.2.1]oct-8-yl)propyl)-4-piperidinylcarboxamide]",49.4,,
"CC(=O)N1CCC(C(=O)N(CCCN2C3CCC2CC(NC(=O)CC24CC5CC(CC(C5)C2)C4)C3)c2ccc(C)c(Cl)c2)CC1 (stereo not drawn) [Compound 7e, 1-acetyl-N-(3-chloro-4-methylphenyl)-N-(3-(3-exo-(2-(1-adamantyl)acetamido)-8-azabicyclo[3.2.1]oct-8-yl)propyl)-4-piperidinylcarboxamide]",209,,
"CC(=O)N1CCC(C(=O)N(CCCN2[C@@H]3CC[C@H]2C[C@H](NC(=O)Cc2ccc(O)cc2)C3)c2ccc(C)c(Cl)c2)CC1 [Compound 7g, 1-acetyl-N-(3-chloro-4-methylphenyl)-N-(3-(3-exo-(2-(4-hydroxyphenyl)acetamido)-8-azabicyclo[3.2.1]oct-8-yl)propyl)-4-piperidinylcarboxamide]",48.2,,
"CC(=O)N1CCC(C(=O)N(CCCN2[C@@H]3CC[C@H]2C[C@H](NC(=O)Cc2ccc(S(=O)(=O)N(C)C)cc2)C3)c2ccc(C)c(Cl)c2)CC1 [Compound 7j, 1-acetyl-N-(3-chloro-4-methylphenyl)-N-(3-(3-exo-(2-(4-(N,N-dimethylsulphonyl)phenyl)acetamido)-8-azadicyclo[3.2.1]oct-8-yl)propyl)-4-piperidinylcarboxamide]",3.08,,
"CC(=O)N1CCC(C(=O)N(CCCN2[C@@H]3CC[C@H]2C[C@H](NC(=O)Cc2ccc4ccccc4c2)C3)c2ccc(C)c(Cl)c2)CC1 [Compound 7o, 1-acetyl-N-(3-chloro-4-methylphenyl)-N-(3-(3-exo-(2-(2-naphthyl)acetamido)-8-azabicyclo[3.2.1]-oct-8-yl)propyl)-4-piperidinylcarboxamide]",697,,
"CC(=O)N1CCC(C(=O)N(CCCN2C3CCC2CC(NC(=O)C(O)c2ccccc2)C3)c2ccc(C)c(Cl)c2)CC1 (stereo not drawn) [Compound 7p, 1-acetyl-N-(3-chloro-4-methylphenyl)-N-(3-(3-exo-(2-hydroxyl-2-phenylacetamido)-8-azabicyclo[3.2.1]oct-8-yl)propyl)-4-piperidinylcarboxamide]",51.5,,
"CC(=O)N1CCC(C(=O)N(CCCN2[C@@H]3CC[C@H]2C[C@H](NC(=O)Cc2c[nH]c4ccccc24)C3)c2ccc(C)c(Cl)c2)CC1 [Compound 7q, N-(3-(3-exo-(2-(3-indolyl)acetamido)-8-azabicyclo[3.2.1]oct-8-yl)propyl)-1-acetyl-N-(3-chloro-4-methylphenyl)-4-piperidinylcarboxamide]",82,,

# Further lines, with some results ahead:
IC50 [nM],Compound,inhibition at 0.03 µM (read-out: inhibition against CCR5 @30 nM) [%],inhibition at 0.3 µM (read-out: inhibition against CCR5 @300 nM) [%]
31.1,"CC(=O)N1CCC(C(=O)N(CCCN2[C@@H]3CC[C@H]2C[C@H](NC(=O)Cc2ccc(F)cc2)C3)c2ccc(C)c(Cl)c2)CC1 [Compound 7b, 1-acetyl-N-(3-chloro-4-methylphenyl)-N-(3-(3-exo-(2-(4-fluorphenyl)acetamido)-8-azabicyclo[3.2.1]oct-8-yl)propyl)-4-piperidinylcarboxamide]",,
15.1,"CC(=O)N1CCC(C(=O)N(CCCN2[C@@H]3CC[C@H]2C[C@H](NC(=O)Cc2ccc(Cl)cc2)C3)c2ccc(C)c(Cl)c2)CC1 [Compound 7c, 1-acetyl-N-(3-chloro-4-methylphenyl)-N-(3-(3-exo-(2-(4-chlorphenyl)acetamido)-8-azabicyclo[3.2.1]oct-8-yl)propyl)-4-piperidinylcarboxamide]",,
20,"CC(=O)N1CCC(C(=O)N(CCCN2[C@@H]3CC[C@H]2C[C@H](NC(=O)Cc2ccc([N+](=O)[O-])cc2)C3)c2ccc(C)c(Cl)c2)CC1 [Compound 7f, 1-acetyl-N-(3-chloro-4-methylphenyl)-N-(3-(3-exo-(2-(4-nitrophenyl)acetamido)-8-azabicyclo[3.2.1]oct-8-yl)propyl)-4-piperidinylcarboxamide]",,
4.89,"CC(=O)N1CCC(C(=O)N(CCCN2[C@@H]3CC[C@H]2C[C@H](NC(=O)Cc2ccc(Cl)c(Cl)c2)C3)c2ccc(C)c(Cl)c2)CC1 [Compound 7h, 1-acetyl-N-(3-chloro-4-methylphenyl)-N-(3-(3-exo-(2-(3,4-dichlorophenyl)acetamido)-8-azabicyclo[3.2.1]oct-8-yl)propyl)-4-piperidinylcarboxamide]",,
11.6,"CC(=O)N1CCC(C(=O)N(CCCN2[C@@H]3CC[C@H]2C[C@H](NC(=O)Cc2ccc(S(C)(=O)=O)cc2)C3)c2ccc(C)c(Cl)c2)CC1 [Compound 7k, 1-acetyl-N-(3-chloro-4-methylphenyl)-N-(3-(3-exo-(2-(4-(methylsulphonyl)phenyl)acetamido)-8-azabicyclo[3.2.1]oct-8-yl)propyl)-4-piperidinylcarboxamide]",,
3.46,"CC(=O)N1CCC(C(=O)N(CCCN2[C@@H]3CC[C@H]2C[C@H](NC(=O)Cc2ccc(S(=O)(=O)N4CCOCC4)cc2)C3)c2ccc(C)c(Cl)c2)CC1 [Compound 7l, 1-acetyl-N-(3-chloro-4-methylphenyl)-N-(3-(3-exo-(2-(4-(morpholinosulfonyl)phenyl)acetamido)-8-azabicyclo[3.2.1]oct-8-yl)propyl)-4-piperidinylcarboxamide]",,
7.54,"CC(=O)N1CCC(C(=O)N(CCCN2[C@@H]3CC[C@H]2C[C@H](NC(=O)Cc2ccc(S(=O)(=O)NC(C)(C)C)cc2)C3)c2ccc(C)c(Cl)c2)CC1 [Compound 7m, 1-acetyl-N-(3-(3-exo-(2-(4-(N-tert-butylsulphonyl)phenyl)acetamido)-8-azabicyclo[3.2.1]oct-8-yl)propyl)-N-(3-chloro-4-methylphenyl)-4-piperidinylcarboxamide]",,
4.75,"CC(=O)N1CCC(C(=O)N(CCCN2[C@@H]3CC[C@H]2C[C@H](NC(=O)Cc2cccc4ccccc24)C3)c2ccc(C)c(Cl)c2)CC1 [Compound 7n, 1-acetyl-N-(3-chloro-4-methylphenyl)-N-(3-(3-exo-(2-(1-naphthyl)acetamido)-8-azabicyclo[3.2.1]oct-8-yl)propyl)-4-piperidinylcarboxamide]",,
20.3,"COc1cc(CC(=O)N[C@@H]2C[C@H]3CC[C@@H](C2)N3CCCN(C(=O)C2CCN(C(C)=O)CC2)c2ccc(C)c(Cl)c2)cc(OC)c1OC [Compound 7r, 1-acetyl-N-(3-chloro-4-methylphenyl)-N-(3-(3-exo-(2-(3,4,5-trimethoxylphenyl)acetamido)-8-azabicyclo[3.2.1]oct-8-yl)propyl)-4-piperidinylcarboxamide]",,
3.34,"CC(=O)N1CCC(C(=O)N(CCCN2[C@@H]3CC[C@H]2C[C@H](NC(=O)Cc2ccc([N+](=O)[O-])c4ccccc24)C3)c2ccc(C)c(Cl)c2)CC1 [Compound 7s, 1-acetyl-N-(3-chloro-4-methylphenyl)-N-(3-(3-exo-(2-(4-nitro-1-naphthyl)acetamido)-8-azabicyclo[3.2.1]oct-8-yl)propyl)-4-piperidinylcarboxamide]",,
